US11400076B2, “Cancer stem cell inhibitor” (KEIO UNIVERSITY, priority 2017, dated 2022)

Key:
[1] = tested on: cancer stem cells (spheroid-forming cells); experiment: Spheroid culture of cancer stem cells in 96-well plate with analyte; assay type: cell-based, mice; details: various concentration of analytes, medium without differentiation-inducing component, FIG. 2
Method: (§1) In accordance with the literature ([…]. et. al., Neoplasia, 13(9) 2011, 784 to 791), the subventricular zone was resected from Ink4a/Arf deficient mice and subjected to trypsin treatment to obtain spheroid-forming cells. The resulting spheroids were cultured in a culture medium containing no differentiation-inducing component (DMEM/F12 in which 20 ng/mL of EGF, 20 ng/mL of FGF, B27 supplement in which vitamin A was removed, 200 ng/mL of heparan sulfate, 100 U/mL of penicillin, and 100 U/mL of streptomycin were added) in a flow of 5% carbon dioxide at 37° C. Then, a constitutively active, mutated form of H-Ras and, as necessary, reporter cassettes for detecting, for example, fluorescent signals or selection marker for cell selection, for example, drug-resistant cassettes, were incorporated into cancer stem cells for transformation, and cultured to obtain spheroid-forming cells. These cells were transplanted to the brains of C57BL/6 mice, then the formed brain tumors were resected and subjected to trypsin treatment to obtain cells. Drug-resistant or fluorescent reporter-positive cells were sorted, and then cell cycle markers were introduced into part of the cells. Thus-obtained spheroid-forming cells were cultured under the above-described culturing condition, and used as a sample. […]

[2] = tested on: cancer stem cells (spheroid-forming cells); experiment: Monolayer culture of cancer stem cells, cell cycle and growth; assay type: cell-based, mice; details: various concentrations, FIG. 3
Method: as §1, with “sample. The above cells were subjected to monolayer culture.” for “sample.”

[3] = tested on: cancer stem cells (spheroid); experiment: Spheroid cell death monitored with propidium iodide (PI); assay type: cell-based, mice; details: for cell death (PI positive area): spheroid, PI added, monitored over time, FIG. 4
Method: In accordance with the literature (Sampetrean O. et. al., Neoplasia, 13(9) 2011, 784 to 791), the subventricular zone was resected from Ink4a/Arf deficient mice and subjected to trypsin treatment to obtain spheroid-forming cells. The resulting spheroids were cultured in a culture medium containing no differentiation-inducing component (DMEM/F12 in which 20 ng/mL of EGF, 20 ng/mL of FGF, B27 supplement in which vitamin A was removed, 200 ng/mL of heparan sulfate, 100 U/mL of penicillin, and 100 U/mL of streptomycin were added) in a flow of 5% carbon dioxide at 37° C. […] These cells were transplanted to the brains of C57BL/6 mice, then the formed brain tumors were resected and subjected to trypsin treatment to obtain cells. Drug-resistant or fluorescent reporter-positive cells were sorted, and then cell cycle markers were introduced into part of the cells. Thus-obtained spheroid-forming cells were cultured under the above-described culturing condition, and used as a sample.

cancer stem cells [4] = experiment: ATP levels in cancer stem cells; assay type: cell-based, mice; details: 21% oxygen (normoxic) and 1% oxygen (hypoxic), FIG. 6
Method: (§2) Since the cell cycle was arrested in the G1 phase, a decrease in energy metabolism was suspected. ATP levels under 21% oxygen (normoxic condition) and 1% oxygen (hypoxic condition) were measured using the same cells as in Example 1. […] From this, suppression of mitochondrial function was suspected, and so, mitochondrial function was evaluated by extracellular flux analysis.

[5] = tested on: mitochondria in cancer stem cells; experiment: Mitochondrial function by extracellular flux analysis; assay type: cell-based, mice; details: 21% oxygen (normoxic) and 1% oxygen (hypoxic), FIG. 6
Method: as §2

mitochondrial complex II = experiment: Expression levels of mitochondrial complex I to V by electrophoresis and Western Blot; assay type: cell-based, mice; details: protein extracted from cells of Example 1, FIG. 7
Method: Furthermore, protein was extracted from cells of Example 1, and the expression levels of mitochondrial complex I to V were measured by electrophoresis and Western Blot.

[6] = tested on: reactive oxygen species (ROS) in mitochondria; experiment: Mito Sox staining, mitochondrial ROS by flow cytometry; assay type: cell-based, mice; details: FIG. 8
Description: Using Mito Sox staining, reactive oxygen species (ROS) in mitochondria was quantified by flow cytometry for the cells cultured according to Example 1, with or without doranidazole, misonidazole, or metronidazole.

[7] = tested on: undifferentiated cancer stem cells; experiment: Effect with altered degree of induction of differentiation by serum; assay type: cell-based, mice; details: serum-free vs serum-containing medium, 4 days, FIG. 9
Description: Using the method similar to Example 1, the degree of induction of differentiation was altered by changing the culture mediums, to observe the effect thereby. Specifically, a group cultured in a serum-free culture medium of Example 1 for consecutive 4 days; a group cultured in a serum-free culture medium for 3 days, and then cultured in a serum-containing culture medium for 1 day; a group cultured in a serum-containing culture medium for 3 days, and then cultured in a serum-free culture medium for 1 day; and the remaining one group cultured in a serum-containing culture medium for 4 days; were prepared. According to such culturing, the degree of induction of differentiation by serum was altered and the effect of doranidazole was confirmed.

cancer stem cells [8] = experiment: Radiation-induced double-strand break, Hoechst 33324 and γH2AX double staining; assay type: cell-based, mice; details: irradiated, hypoxic condition, FIG. 10
Description: Cells cultured according to the method of Example 1, with or without doranidazole, were irradiated, followed by double staining with Hoechst 33324 and γH2AX, and then double-strand break was quantified.

[9] = in vivo; cited from earlier work

SMILES	growth of spheroids [1]	cell cycle [2]	growth [2]	type of cell death ([3]; inhibitor comparison, FIG. 5)	cell death (PI positive area) [3]	ATP content of cancer stem cells (cancer stem cells [4])	oxygen consumption of mitochondria [5]	reserve capacity of mitochondria [5]	expression of complex II (mitochondrial complex II)	ROS in mitochondria [6]	effect depending on degree of induction of differentiation by serum [7]	radiation-induced double-strand break (cancer stem cells [8])	LD50 [9]	suppression of doranidazole-induced cell death ([3]; compared to DMSO, necrostatin 1 and Z-VAD-FMK, FIG. 5)
O=[N+]([O-])c1nccn1COC(CO)C(O)CO (centres unmarked) [doranidazole]	suppresses the growth of spheroids	arrests the cell cycle in the G1 phase	suppresses growth	ferroptosis	cell death is induced by doranidazole in dose dependent manner	decreased	decreased depending on the concentration	decreased depending on the concentration	remarkably decreased	significantly increases	when the degree of induction of differentiation by serum is low, the effect of doranidazole is remarkable	significantly enhances	≥ 5000 mg/kg	
CCOC(=O)c1ccc(NC2CCCCC2)c(N)c1 [ferrostatin 1]														significantly suppressed
Cc1ncc([N+](=O)[O-])n1CCO [metronidazole]					no cell death was observed					not observed				
COCC(O)Cn1ccnc1[N+](=O)[O-] (centres unmarked) [misonidazole]					the cell death was similarly confirmed				remarkably decreased	significantly increases			about 1 g/kg	
